Experiments:
RAW 264.7 cells [1] = assay: MTT cell viability assay; type: cell-based, mouse; conditions: for cytotoxic effects on RAW 264.7 cells (MTT): LPSEc stimulated
Experimental: (§1) Murine macrophages, cell line: RAW 264.7 was procured from ATCC, USA. The macrophage cells were grown and cultured in Dulbecco’s Modified Eagle Medium (DMEM) supplemented with 10% Fetal Bovine serum (FBS) and 1% PenStrep and incubated in a 5% CO2 at 37 °C incubator. Cells from passages 10 to 20 were used for subsequent experiments.
A calorimetric agent (3-(4,5-Dimethylthiazol-2-yl)-2,5-Diphenyltetrazolium Bromide) (MTT) was used to as an assay to determine cell viability after being exposed to NQC. RAW 264.7 cells were seeded in a 96-well microplate at 3 × 10^5 cells/well and were allowed to grow and adhere for 24 h in a 37 °C, 5% CO2 incubator. NQC was dissolved in DMSO and diluted with PBS to produce the required test concentrations (100, 50, 25, 12.5, 6.25 and 3.125 µM). The negative control is 0.1% (v/v) DMSO, which is the maximum effective concentration of DMSO in a well. The cells were treated with either NQC or 0.1% (v/v) DMSO for 4 h followed by 1 µg/mL LPSEc and incubated further for 20 h. MTT solution was added at 100 µL per well under dark condition and the cells were incubated further for 4 h. Upon completion of incubation, the contents in all wells were aspirated and DMSO was added at 100 µL per well. The absorbance was measured at 570 nm using Molecular Devices Spectramax M3 Multi-Mode microplate reader; Sunnyvale, CA, USA. The cells without any treatment was used as a control. MTT assay was performed in triplicate. The percent cell viability is calculated using the following equation: PercentCellViabilty=AbsorbanceofVehicleorTD-1treatedgroupwell/AbsorbanceofControlwell×100.

RAW 264.7 cells [2] = assay: Nitric oxide (nitrite) production, Griess reagent, LPSEc stimulated cells; type: cell-based; conditions: Mus musculus, RAW264.7; LPSEc (1 µg/mL) stimulated RAW 264.7 cells; 4 h pretreatment, 20 h LPS; read-out: IC50, NO production
Experimental: as §1
RAW 264.7 cells were seeded in a 96-well microplate at 3 × 10^5 cells/well with complete media. The cells were allowed grow and adhere for 24 h. The cells were treated with NQC (50, 25, 12.5, 6.25 and 3.125 µM) and negative control (0.1% v/v DMSO in water) for 4 h prior to LPSEc (1 µg/mL) and allowed to incubate for 20 h at 37 °C, 5% CO2 incubator. Nitrite exist as a stable metabolite of nitric oxide, thus nitrite present in the supernatant was quantitatively measured as a chemical marker of nitric oxide (NO) production using Griess reagent (Promega, USA; 0.1% naphthylethylenediamine dihydrochloride and 1% sulfanilamide in 2.5% phosphoric acid). This assay was carried out following the manufacturer’s protocol where 100 µL of cell supernatant sample was incubated with 100 µL of Griess reagent at room temperature for 10 min and the absorbance at 540 nm was measured using Molecular Devices Spectramax M3 Multi-Mode microplate reader. […]

RAW 264.7 cells [3] = assay: IL-1β production, ELISA, LPSEc stimulated cells; type: cell-based; conditions: Mus musculus, RAW264.7, LPSEc (1 µg/mL) stimulated RAW 264.7 cells
Experimental: as §1
(§2) Production of IL-1β, IL-6, PGE2− and TNF-α in RAW 264.7 cells were quantitatively measured using an enzyme-linked immunosorbent assay (ELISA). The cells were incubated with 0.1% DMSO or NQC for 4 h, then stimulated with LPSEc, 1 µg/mL, for 20 h. The production of pro-inflammatory cytokines (IL-1β, IL-6) and TNF-α were determined using commercial ELISA kit (RayBio) according to the manufacturer’s instructions in product insert. The absorbance was measured at 540 nm. All the experiments were performed in triplicate.

RAW 264.7 cells [4] = assay: IL-6 production, ELISA, LPSEc stimulated cells; type: cell-based; conditions: Mus musculus, RAW264.7, LPSEc (1 µg/mL) stimulated RAW 264.7 cells
Experimental: as §1, §2

RAW 264.7 cells [5] = assay: TNF-α production, ELISA, LPSEc stimulated cells; type: cell-based; conditions: Mus musculus, RAW264.7, LPSEc (1 µg/mL) stimulated RAW 264.7 cells
Experimental: as §1, §2

RAW 264.7 cells [6] = assay: PGE2 production, ELISA, LPSEc stimulated cells; type: cell-based; conditions: Mus musculus, RAW264.7, LPSEc (1 µg/mL) stimulated RAW 264.7 cells
Experimental: as §1, §2

Nrf2-Keap1 interaction = target: T1, Nrf2-Keap1 interaction (Homo sapiens, UniProt Q14145); assay: Keap1:Nrf2 Inhibitor Screening Assay Kit (Nrf2 activation assay); type: binding; conditions: fluorescence λex 485 nm, λem 530 nm; 100 µM to 1 nM; read-out: IC50, inhibition of Nrf2-Keap1 interaction
T1 construct: purchased BPS Bioscience, USA
T1 sequence (Q14145 whole entry): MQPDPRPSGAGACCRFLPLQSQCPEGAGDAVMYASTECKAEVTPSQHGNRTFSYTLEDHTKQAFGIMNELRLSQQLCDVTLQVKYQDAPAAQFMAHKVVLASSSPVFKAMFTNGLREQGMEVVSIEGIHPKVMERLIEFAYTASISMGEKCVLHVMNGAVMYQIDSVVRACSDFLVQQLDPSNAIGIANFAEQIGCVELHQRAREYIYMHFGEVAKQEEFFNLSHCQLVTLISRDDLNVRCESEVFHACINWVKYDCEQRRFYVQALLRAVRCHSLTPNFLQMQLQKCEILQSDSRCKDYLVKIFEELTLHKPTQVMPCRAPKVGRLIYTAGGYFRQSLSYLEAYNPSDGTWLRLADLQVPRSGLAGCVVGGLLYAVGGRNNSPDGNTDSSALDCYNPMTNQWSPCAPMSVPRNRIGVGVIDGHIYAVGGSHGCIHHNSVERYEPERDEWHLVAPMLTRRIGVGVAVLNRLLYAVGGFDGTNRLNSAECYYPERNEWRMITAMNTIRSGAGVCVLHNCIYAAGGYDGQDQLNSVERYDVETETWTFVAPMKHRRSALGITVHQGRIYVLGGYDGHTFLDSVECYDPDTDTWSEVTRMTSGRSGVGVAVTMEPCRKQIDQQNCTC
Experimental: The Nrf2 activation by NQC was determined using ‘Keap1:Nrf2 Inhibitor Screening Assay Kit’ (BPS Bioscience, USA) following the instructions in product insert. The NQC was dissolved in DMSO and diluted with assay buffer provided in the kit to produce the concentrations range, 100 µM to 1 nM. The fluorescence of the solutions in each well of 96-well plate was measured at λex 485 nm and λem 530 nm. The dose–response curve was constructed plotting percent reduction in Kepa1-Nrf2 binding activity versus log concentration of NQC. From dose–response curve IC50 value was calculated.

[7] = Microsomal metabolic stability, human liver microsomes; type: in vitro ADME; conditions: NQC 1 µM
Experimental: (§3) A stock solution (SS) of NQC at 1 mM was prepared using 100% dimethyl sulfoxide. Working solution of 10 μM was further prepared by dilution of SS with 25% ACN and 50 mM tris–HCl buffer (pH 7.4). In a 96-well plate, NQC (effective concentration:1 µM) was incubated with phosphate buffer (pH7.4) and 0.5 mg/mL of liver microsomes (human, rat and mouse) at 37 °C in an incubation. Each NQC incubation with liver microsomes was performed in triplicates. The microsomal metabolic reaction was initiated by the addition of co-factor, NADPH (5 mM). Samples following the allotted time-point was drawn and quenched into a solution of acetonitrile containing 50 ng/mL internal standard. The sample was analysed by a developed HPLC method that has been validated for lower limit of quantification, linearity, precision, selectivity and accuracy according to FDA guidance.
(§4) Half-life of NQC was calculated using the equation: T1/2=0.693/K.
(§5) The in vitro microsomal intrinsic clearance (CLint) was calculated based on the equation below: Clint=0.693/invitrot(1/2)×mlincubation/mgmicrosome×52.5mgmicrosome/gliver×[…].

[8] = Microsomal metabolic stability, rat liver microsomes; type: in vitro ADME; conditions: NQC 1 µM
Experimental: as §3, §4, §5

[9] = Microsomal metabolic stability, mouse liver microsomes; type: in vitro ADME; conditions: NQC 1 µM
Experimental: as §3, §4, §5

Compound: O=C(NNC(=O)c1cnc2ccccc2n1)c1cccnc1 [NQC, N′-(Pyridine-3-carbonyl)quinoxaline-2-carbohydrazide]
- cytotoxic effects on RAW 264.7 cells (MTT) (RAW 264.7 cells [1]; 100 µM, P < 0.05): significant toxicity
- cytotoxic effects on RAW 264.7 cells (MTT) (RAW 264.7 cells [1]; 3.125–50 µM, P > 0.05): do not show cytotoxic effects
- toxicity on RAW 264.7 cells (RAW 264.7 cells [1]; dose of 50 µM): non-toxic
- IC50 (RAW 264.7 cells [2]): 26.1 ± 1.17 µM
- IC50 (RAW 264.7 cells [3]): 13.3 ± 2.37 µM
- IC50 (RAW 264.7 cells [4]): 10.1 ± 0.58 µM
- IC50 (RAW 264.7 cells [5]): 14.4 ± 1.83 µM
- IC50 (RAW 264.7 cells [6]): 15.2 ± 0.91 µM
- IC50 (Nrf2-Keap1 interaction): 4.21 ± 0.89 µM
- Rate of metabolism ([7]; human liver microsomes): 0.011 min⁻¹
- microsomal intrinsic clearance (CLint) ([7]; human liver microsomes): 1.14 ± 0.31 mL/min/g liver
- mCint (microsomal intrinsic clearance) ([7]; human liver microsomes, Table 1): 1.14 ± 0.31 mL/min/g liver
- half-life at 1 µM ([7]; pH 7.4, human liver microsomes 0.5 mg/mL, NADPH, 37 °C): 63.3 ± 1.73 min
- T1/2 ([8]; rat liver microsomes 0.5 mg/mL, NADPH, 37 °C): 52.23 ± 0.81 min
- Rate of metabolism ([8]; rat liver microsomes): 0.013 min⁻¹
- microsomal intrinsic clearance (CLint) ([8]; rat liver microsomes): 1.39 ± 0.87 mL/min/g liver
- mCint (microsomal intrinsic clearance) ([8]; rat liver microsomes, Table 1): 1.39 ± 0.87 mL/min/g liver
- half-life at 1 µM ([8]; rat, liver microsomes, pH 7.4, rat liver microsomes 0.5 mg/mL, NADPH, 37 °C): 52.3 ± 0.81 min
- Rate of metabolism ([9]; mouse liver microsomes): 0.028 min⁻¹
- microsomal intrinsic clearance (CLint) ([9]; mouse liver microsomes): 2.96 ± 0.34 mL/min/g liver
- mCint (microsomal intrinsic clearance) ([9]; mouse liver microsomes, Table 1): 2.96 ± 0.34 mL/min/g liver
- half-life at 1 µM ([9]; pH 7.4, mouse liver microsomes 0.5 mg/mL, NADPH, 37 °C): 24.6 ± 1.13 min

From article PMC6760105, “Construction of a novel quinoxaline as a new class of Nrf2 activator” (BMC Chemistry, 2019)
